Assay results: patent publication US20250339399A1, “SUPRAMOLECULAR SELF-ASSEMBLY SYSTEM” (Beijing Creatron Institute of Pharmaceutical Research Co., …, priority 2022, published 2025)
Where two headings read alike, the source gives them in different places.

Columns and labels:
[1] = cited from earlier work; for LogP / Sol: natural flavonoids (chalcone, dihydrochalcone class)
[2] = Guest molecule concentration after incubation in initial medium without polymer (Comparative Example 1); assay type: physicochemical; conditions: 37° C., pH 4.5 acetate buffer
Summary of the method: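 Dissolved guest content measured by HPLC of centrifuged supernatants (37° C., 13000 rpm, 5 min) sampled at 0.5 h, 3 h and 6 h. Incubation was polymer-free at 37° C.±0.5° C. in buffers of pH 2.0-7.4; nominal loading was set by maximum clinical dose.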

[3] = cited from earlier work
[4] = Binary (carrier), ternary and quaternary supramolecular self-assembly systems of polymer, carrier building block and target: guest concentration over incubation time (Examples 1-56); assay type: physicochemical; conditions: 6 h
Summary of the method: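 Targets were incubated at 37 °C in pH 2.0–7.4 buffers with 0.5% polymer alone or with carrier building blocks, after 0.5 h sonication for ternary systems, and shaken at 200 rpm. Samples at 0.5–6 h were centrifuged and diluted ≥10-fold, and dissolved target was quantified by HPLC; surfactant was added if needed.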

[5] = Binary supramolecular self-assembly systems of polymer and target: guest concentration over incubation time (Comparative Example 2); assay type: physicochemical
Description: Experiments were conducted according to the steps in Comparative Example 1, and quantitative analysis was carried out using the analytical method for each target to investigate the regulation ability […] stacking.

[6] = parent flavonoid of the class, no unit printed in the heading

For `O=C(CCc1ccc(O)c(O)c1)c1c(O)cc(O)cc1O[C@@H]1O[C@H](CO)[C@@H](O)[C@H](O)[C@H]1O` [3-hydroxyphloretin 2′-glucoside], the LogP ([1]; Table 1 basic information) is listed as 0.67 and the Sol ([1]; Table 1 basic information) is listed as 11.65 mg/mL.

For `O=C(CCc1ccc(O)c(O)c1)c1c(O)cc(O)cc1O` [3-hydroxyphloretin, 3-(3,4-dihydroxyphenyl)-1-(2,4,6-trihydroxyphenyl)propan-1-one], the Sol ([1]; Table 1 basic information) is listed as 8.59 mg/mL.

For `O=C(CCc1ccc(O)c(O)c1)c1c(O)cc(O)c([C@@H]2O[C@H](CO)[C@@H](O)[C@H](O)[C@H]2O)c1O` [Aspalathin, 3-(3,4-dihydroxyphenyl)-1-{2,4,6-trihydroxy-3-[3,4,5-trihydroxy-6-(hydroxymethyl)oxo-2-yl]phenyl]propan-1-one], the LogP ([1]; Table 1 basic information) is listed as 0.83 and the Sol ([1]; Table 1 basic information) is listed as 36.12 mg/mL.

In the case of `CC1(C)[C@@H](O[C@H]2O[C@H](C(=O)O)[C@@H](O)[C@H](O)[C@H]2O[C@@H]2O[C@H](C(=O)O)[C@@H](O)[C@H](O)[C@H]2O)CC[C@]2(C)[C@H]3C(=O)C=C4[C@@H]5C[C@@](C)(C(=O)O)CC[C@]5(C)CC[C@@]4(C)[C@]3(C)CC[C@@H]12` [Glycyrrhizic acid, glycyrrhizic acid], the Solubility ([1]; pH > 5.0) is listed as “pH > 5.0: 159 mg/ml”.

In the case of `COc1cc(-c2oc3cc(O)cc(O)c3c(=O)c2O)ccc1O` [Isorhamnetin], the “Intrinsic solubility (value in the class heading)” value ([1]; parent flavonoid of the class, Table 1 basic information) is given as “Isorhamnetin derivatives (0.45 mg/ml)”.

For `O=c1c(O)c(-c2ccc(O)cc2)oc2cc(O)cc(O)c12` [Kaempferol, kaempferol], the “solubility value given in Table 1 (basic information of natural flavonoids)” value (“solubility value given” for short) [1, 6] is listed as “Kaempferol (520-18-3) derivatives-0.40”.

In the case of `O=c1cc(-c2ccc(O)c(O)c2)oc2cc(O)cc(O)c12` [Luteolin], the “solubility value given” value [1, 6] is given as “Luteolin (CAS: 491-70-3) derivatives-0.40”.

For `O=c1c(O)c(-c2cc(O)c(O)c(O)c2)oc2cc(O)cc(O)c12` [Myricetin], the “solubility value given” value ([1]; parent flavonoid of the class, value follows the class name) is given as “Myricetin (529-44-2) derivatives −3.14 mg/ml”.

For `C[C@@H]1O[C@@H](O[C@H]2[C@H](Oc3cc(O)c(C(=O)CCc4ccc(O)cc4)c(O)c3)O[C@H](CO)[C@@H](O)[C@@H]2O)[C@H](O)[C@H](O)[C@H]1O` [Naringin dihydrochalcone, naringin dihydrochalcone], the LogP ([1]; Table 1 basic information) is listed as 0.90 and the Sol ([1]; Table 1 basic information) is listed as 6.78 mg/mL.

In the case of `C[C@@H]1O[C@@H](O[C@H]2[C@H](Oc3cc(O)c(C(=O)CCc4ccc(O)c(O)c4)c(O)c3)O[C@H](CO)[C@@H](O)[C@@H]2O)[C@H](O)[C@H](O)[C@H]1O` [Neoeriocitrin dihydrochalcone, 1-[4-[(2S,3R,4S,5S,6R)-4,5-dihydroxy-6-(hydroxymethyl)-3-[(2S,3R,4R,5R,6S)-3,4,5-trihydroxy-6-methoxy-2-yl]oxy-2-yl]oxy-2,6-dihydroxyphenyl]-3-(3,4-dihydroxyphenyl)propan-1-one], the Sol ([1]; Table 1 basic information) is given as 21.89 mg/mL.

For `COc1ccc(CCC(=O)c2c(O)cc(O[C@@H]3O[C@H](CO)[C@@H](O)[C@H](O)[C@H]3O[C@@H]3O[C@@H](C)[C@H](O)[C@@H](O)[C@H]3O)cc2O)cc1O` [Neosperidin dihydrochalcone, neohesperidin dihydrochalcone], the Sol ([1]; Table 1 basic information) is listed as 104.87 mg/mL.

In the case of `O=C(CCc1ccc(O)cc1)c1c(O)cc(O)cc1O` [Phloretin, 3-(4-hydroxyphenyl)-1-(2,4,6-trihydroxyphenyl)propan-1-one], the Sol ([1]; Table 1 basic information) is listed as 3.07 mg/mL.

In the case of `O=C(CCc1ccc(O)cc1)c1c(O)cc(O)cc1O[C@@H]1O[C@H](CO)[C@@H](O)[C@H](O)[C@H]1O` [Phloridzin, 1-[2,4-dihydroxy-6-[(2S,3R,4S,5S,6R)-3,4,5-trihydroxy-6-(hydroxymethyl)oxo-2-yl]oxophenyl]-3-(4-hydroxyphenyl)propan-1-one], the Sol ([1]; Table 1 basic information) is given as 3.89 mg/mL.

In the case of `O=c1c(O)c(-c2ccc(O)c(O)c2)oc2cc(O)cc(O)c12` [Quercetin], the Intrinsic solubility ([1]; parent flavonoid of the class, Table 1 basic information, unit not given) is given as “Quercetin (CAS 117-39-5) derivatives EUF (Intrinsic solubility: 1.11)”.

For `C=C1C[C@@]23CC[C@H]4[C@@](C)(CCC[C@@]4(C)C(=O)O[C@@H]4O[C@H](CO)[C@@H](O)[C@H](O)[C@H]4O)[C@@H]2CC[C@]1(O[C@@H]1O[C@H](CO)[C@@H](O)[C@H](O[C@@H]2O[C@H](CO)[C@@H](O)[C@H](O)[C@H]2O)[C@H]1O[C@@H]1O[C@H](CO)[C@@H](O)[C@H](O)[C@H]1O)C3` [Rebaudioside A], the Intrinsic solubility [1] is given as “Intrinsic solubility: 288.8 mg/ml”.

In the case of `C=C1C[C@@]23CC[C@H]4[C@@](C)(CCC[C@@]4(C)C(=O)O)[C@@H]2CC[C@]1(O[C@@H]1O[C@H](CO)[C@@H](O)[C@H](O[C@@H]2O[C@H](CO)[C@@H](O)[C@H](O)[C@H]2O)[C@H]1O[C@@H]1O[C@H](CO)[C@@H](O)[C@H](O)[C@H]1O)C3` [Rebaudioside B, rebaudioside B], the Intrinsic solubility [1] is given as “Intrinsic solubility: 7.98 mg/ml”.

For `C=C1C[C@@]23CC[C@H]4[C@@](C)(CCC[C@@]4(C)C(=O)O[C@@H]4O[C@H](CO)[C@@H](O)[C@H](O)[C@H]4O)[C@@H]2CC[C@]1(O[C@@H]1O[C@H](CO)[C@@H](O)[C@H](O[C@@H]2O[C@H](CO)[C@@H](O)[C@H](O)[C@H]2O)[C@H]1O[C@@H]1O[C@@H](C)[C@H](O)[C@@H](O)[C@H]1O)C3` [Rebaudioside C, rebaudioside C], the Intrinsic solubility [1] is listed as “Intrinsic solubility: 72.63 mg/ml”.

For `C=C1C[C@@]23CC[C@H]4[C@@](C)(CCC[C@@]4(C)C(=O)O[C@@H]4O[C@H](CO)[C@@H](O)[C@H](O)[C@H]4O)[C@@H]2CC[C@]1(O[C@@H]1O[C@H](CO)[C@@H](O)[C@H](O)[C@H]1O)C3` [Rubusoside, rubusoside], the Intrinsic solubility [1] is given as “Intrinsic solubility: 0.39 mg/ml”.

For `O=C(CCc1ccc(O)c(O)c1)c1c(O)cc(O[C@@H]2O[C@H](CO)[C@@H](O)[C@H](O)[C@H]2O)cc1O` [Sieboldin, 1-(2,6-dihydroxy-4-{[3,4,5-trihydroxy-6-(hydroxymethyl)oxo-2-yl]oxy}phenyl)-3-(3,4-dihydroxyphenyl)propan-1-one], the LogP ([1]; Table 1 basic information) is listed as 1.32 and the Sol ([1]; Table 1 basic information) is listed as 11.65 mg/mL.

In the case of `C=C1C[C@@]23CC[C@H]4[C@@](C)(CCC[C@@]4(C)C(=O)O[C@@H]4O[C@H](CO)[C@@H](O)[C@H](O)[C@H]4O)[C@@H]2CC[C@]1(O[C@@H]1O[C@H](CO)[C@@H](O)[C@H](O)[C@H]1O[C@@H]1O[C@H](CO)[C@@H](O)[C@H](O)[C@H]1O)C3` [Stevioside], the Intrinsic solubility [1] is given as “Intrinsic solubility: 6.7 mg/ml”.

For `C=CC[C@@H]1/C=C(\C)C[C@H](C)C[C@H](OC)[C@H]2O[C@@](O)(C(=O)C(=O)N3CCCC[C@H]3C(=O)O[C@H](/C(C)=C/[C@@H]3CC[C@@H](O)[C@H](OC)C3)[C@H](C)[C@@H](O)CC1=O)[C@H](C)C[C@@H]2OC` [Tacrolimus], the “Concentration of guest molecule measured after different incubated time” value (“Concentration … after different incubated time” for short) ([2]; 0.5 h) was 77.4 µg/mL, the “Concentration … after different incubated time” value ([2]; 3 h) was 8.2 µg/mL and the “Concentration … after different incubated time” value ([2]; 6 h) was 17.3 µg/mL. The LogP [3] was “LogP 5.59”, the “Concentration of guest molecule in solution” value (“Concentration … in solution” for short) ([4]; ternary: 0.25% 102H + 307) was 161.3 µg/mL and the “Concentration … in solution” value ([4]; ternary: 0.25% 102H + 308) was 219.1 µg/mL. The “Concentration … in solution” value ([4]; ternary: 0.25% 102H + 320) was 328.9 µg/mL, the “Concentration … in solution” value ([4]; ternary: 0.25% 102H + 321) was 337.2 µg/mL and the “Concentration of the target in the solution measured after different incubation time” value (shortened to “Concentration … after different incubation time”) ([5]; binary system with 0.5% polymer 101, incubation 0.5 h) was 224.0 µg/mL. For the same compound, the “Concentration … after different incubation time” value ([5]; binary system with 0.5% polymer 101, incubation 3 h) was 88.8 µg/mL, the “Concentration … after different incubation time” value ([5]; binary system with 0.5% polymer 101, incubation 6 h) was 161.3 µg/mL and the “Concentration … after different incubation time” value ([5]; binary system with 0.5% polymer 102, incubation 0.5 h) was 63.4 µg/mL. The “Concentration … after different incubation time” value ([5]; binary system with 0.5% polymer 102, incubation 3 h) was 60.3 µg/mL, the “Concentration … after different incubation time” value ([5]; binary system with 0.5% polymer 102, incubation 6 h) was 55.7 µg/mL and the “Concentration … after different incubation time” value ([5]; binary system with 0.5% polymer 103, incubation 0.5 h) was 46.8 µg/mL. The “Concentration … after different incubation time” value ([5]; binary system with 0.5% polymer 103, incubation 3 h) was 58.7 µg/mL, the “Concentration … after different incubation time” value ([5]; binary system with 0.5% polymer 103, incubation 6 h) was 6.0 µg/mL and the “Concentration … after different incubation time” value ([5]; binary system with 0.5% polymer 106, incubation 0.5 h) was 78.6 µg/mL. The “Concentration … after different incubation time” value ([5]; binary system with 0.5% polymer 106, incubation 3 h) was 65.2 µg/mL, the “Concentration … after different incubation time” value ([5]; binary system with 0.5% polymer 106, incubation 6 h) was 5.2 µg/mL and the “Concentration … after different incubation time” value ([5]; binary system with 0.5% polymer 107, incubation 0.5 h) was 68.7 µg/mL. For the same compound, the “Concentration … after different incubation time” value ([5]; binary system with 0.5% polymer 107, incubation 3 h) was 62.8 µg/mL and the “Concentration … after different incubation time” value ([5]; binary system with 0.5% polymer 107, incubation 6 h) was 13.2 µg/mL.

For `CC(=O)O[C@H]1[C@H](Oc2cc(O)c(C(=O)CCc3ccc(O)cc3)c(O)c2)O[C@H](CO)[C@@H](O)[C@@H]1O` [Trilobatin 2″-acetate, [(2S,3R,4S,5S,6R)-(R)-2-[3,5-dihydroxy-4-[3-(4-hydroxyphenyl)propionyl]phenoxy]-4,5-dihydroxy-6-(hydroxymethyl)oxy-3-yl]acetate], the LogP ([1]; Table 1 basic information) is given as 2.07 and the Sol ([1]; Table 1 basic information) is given as 2.08 mg/mL.

For `O=C(CCc1ccc(O)cc1)c1c(O)cc(O[C@@H]2O[C@H](CO)[C@@H](O)[C@H](O)[C@H]2O)cc1O` [Trilobatin, trilobatin], the Sol ([1]; Table 1 basic information) is listed as 3.89 mg/mL.
